{
  "source": "patent US9132138B2",
  "about": "“Method for the treatment of multiple sclerosis” (CASI Pharmaceuticals, Inc., priority 2012, dated 2015)",
  "key": {"human PBL": {"tested_on": "human PBL", "assay": "CD25 expression and cytokine production by CD3/28-stimulated human PBL", "format": "cell-based", "protocol": "Purified CD4^+ T cells were stimulated with plate-bound anti-CD3 (clone 2C11, BD, 10 ng/ml) plus anti-CD28 (clone 37.51, BD, 100 ng/ml). Purified B220+ B cells were stimulated with anti-IgM (Jackson, 5 μg/ml), anti-CD40 (clone 3/20, BD, 5 μg/ml) or LPS (Sigma, 20 μg/ml) for the times indicated in FIG. 3. CD25 and CD69 expression was determined by flow cytometry (FACSCanto II, BD) and analyzed using FloJo software (Treestar Inc). Proliferation was assessed by 3H-thymidine incorporation. Viability and upregulation of cell surface markers on activated T cells were assessed by flow cytometry using Annexin V and propridium iodide. Human Peripheral blood mononuclear cells (PBMC) were isolated using Mono-Poly Resolving Medium (MP Biomedical) according to the manufacturer's protocols and activated with anti-CD3 (clone UCHT1) and anti-CD28 (clone CD28.2)."}, "activated T cells": {"tested_on": "activated T cells", "assay": "Quantitative real time PCR of mRNAs in activated T cells", "format": "cell-based, C57/BL6 mice"}, "[1]": {"tested_on": "SEB-induced cytokine production", "parameters": "species or system C57/BL6 mice", "conditions": "mouse, in vivo"}, "AP-1": {"tested_on": "AP-1", "assay": "EMSA of T cell nuclear extracts", "format": "cell-based, C57/BL6 mice", "conditions": "2ME2 50 μM, PMA/iono", "protocol": "(§1) FIG. 4A, purified T cells pre-treated with 2ME2 (50 μM) were stimulated with PMA/iono for the indicated times. Whole cell lysates were subjected to immunoblotting to detect the indicated proteins. FIG. 4B, nuclear lysates were analyzed by EMSA to detect DNA binding to NF-κB or AP-1. FP, free probe. FIG. 4C, purified T cells or B cells were pre-treated with vehicle (−) or 50 μM 2ME2 (+) and were stimulated with PMA/iono for 30 or 60 minutes (left), or with anti-CD3/28 or anti-IgM/CD40 for 24 hours (right). Nuclear fractions of lymphocytes were analyzed by immunoblotting to detect nuclear translocation of NFATc1. Lamin A, nuclear protein loading control. NS; non-specific band. For FIGS. 4A-4C, data are representative of at least two independent experiments. FIG. 4D, stably transfected NFAT and NF-κB Jurkat luciferase reporter cell lines were preincubated with 2ME2 for 30 minutes, and stimulated via crosslinking of anti-CD3/28 antibodies with goat anti-mouse antibodies (GaM). 5 hours later, secreted luciferase activity indicates relative transcriptional activity. Data is reported as normalized luciferase activity and is representative of 3 independent experiments.\n(§2) Nuclear extracts of T cells stimulated with PMA (10 ng/ml)+calcium ionophore A23187 (iono, Sigma) (50 ng/ml) for 30 or 60 minutes were prepared according to a standard protocol. […]"}, "NF-κB [2]": {"tested_on": "NF-κB", "assay": "EMSA of T cell nuclear extracts", "format": "cell-based, C57/BL6 mice", "conditions": "2ME2 50 μM, PMA/iono", "protocol": "as §1, §2"}, "NFATc1": {"tested_on": "NFATc1", "assay": "NFATc1 nuclear translocation by immunoblotting of nuclear fractions", "format": "cell-based, C57/BL6 mice", "protocol": "as §1\nT or B cells pre-incubated with vehicle or 2ME2 (50 μM) were stimulated with PMA (10 ng/ml)+iono (50 ng/ml); plate-bound anti-CD3 (30 ng/ml)+anti-CD28 (100 ng/ml); or anti-IgM (1 μg/ml)+anti-CD40 (1 μg/ml). Nuclear extracts (5 μg protein) were immunoblotted with anti-NFATc1 (clone 7A6, Santa Cruz) and anti-Lamin A (clone H-102, Santa Cruz)."}, "NF-κB [3]": {"tested_on": "NF-κB", "assay": "Gaussia luciferase reporter assay in Jurkat cells", "format": "cell-based", "conditions": "anti-CD3/28, 5 hours", "protocol": "(§3) FIG. 4A, purified T cells pre-treated with 2ME2 (50 μM) were stimulated with PMA/iono for the indicated times. Whole cell lysates were subjected to immunoblotting to detect the indicated proteins. FIG. 4B, nuclear lysates were analyzed by EMSA to detect DNA binding to NF-κB or AP-1. FP, free probe. FIG. 4C, purified T cells or B cells were pre-treated with vehicle (−) or 50 μM 2ME2 (+) and were stimulated with PMA/iono for 30 or 60 minutes (left), or with anti-CD3/28 or anti-IgM/CD40 for 24 hours (right). Nuclear fractions of lymphocytes were analyzed by immunoblotting to detect nuclear translocation of NFATc1. Lamin A, nuclear protein loading control. NS; non-specific band. […]\n(§4) Luciferase Assays were performed using Jurkat cells harboring a stably integrated Gaussia-luciferase reporter gene under the control of NF-κB or NFAT binding sites (Termed NFAT/NF-κB-GLuc reporter Jurkat). Gaussia luciferase contains a secretion peptide sequence mediating quantitative secretion of active enzyme into the surrounding medium. […] Luciferase activity was measured in 96-well plates using a Orion L microplate Luminometer (Berthold Detection Systems) with an integration time of 3.0 seconds. In parallel, cell viability was determined using the CellTiter-Glo® Luminescent Cell Viability Assay (Promega) and normalized Gluc activity was calculated as the ratio between Gluc activity and cell viability counts."}, "NFAT": {"tested_on": "NFAT", "assay": "Gaussia luciferase reporter assay in Jurkat cells", "format": "cell-based", "conditions": "anti-CD3/28, 5 hours", "protocol": "as §3, §4"}, "[4]": {"conditions": "oral 2ME2, mice and humans; cited from earlier work"}},
  "data": [
    {"smiles": "COc1cc2c(cc1O)CC[C@@H]1[C@@H]2CC[C@]2(C)[C@@H](O)CC[C@@H]12", "note": "[2ME2, 2-Methoxyestradiol]", "values": [
      {"measurement": "IFNγ production", "setting": "human PBL; CD3/28-stimulated human PBL", "result": "inhibited"},
      {"measurement": "IL-2 production", "setting": "human PBL; CD3/28-stimulated human PBL", "result": "inhibited"},
      {"measurement": "IL-17A production", "setting": "human PBL; CD3/28-stimulated human PBL", "result": "inhibited"},
      {"measurement": "anti-CD3/28-induced expression of CD25 on CD4+ and CD8+ T cells", "setting": "human PBL; human PBL", "result": "inhibited"},
      {"measurement": "induction of CD25 mRNA", "setting": "activated T cells; 2ME2 50 μM, anti-CD3/28", "result": "decreased the induction"},
      {"measurement": "induction of CD44 mRNA", "setting": "activated T cells; 2ME2 50 μM, anti-CD3/28", "result": "decreased the induction"},
      {"measurement": "induction of IFNγ mRNA", "setting": "activated T cells; 2ME2 50 μM, anti-CD3/28", "result": "decreased the induction"},
      {"measurement": "induction of IL-2 mRNA", "setting": "activated T cells; 2ME2 50 μM, anti-CD3/28", "result": "decreased the induction"},
      {"measurement": "induction of TNFα mRNA", "setting": "activated T cells; 2ME2 50 μM, anti-CD3/28", "result": "decreased the induction"},
      {"measurement": "mRNA levels of GATA3", "setting": "activated T cells; 3 hours post stimulation", "result": "normal induction"},
      {"measurement": "up-regulation of IL-17 mRNA", "setting": "activated T cells; after 3 hours and 24 hours anti-CD3/28 stimulation", "result": "blocking up-regulation"},
      {"measurement": "upregulation of IL-4 mRNA", "setting": "activated T cells; in response to TCR ligation", "result": "inhibited"},
      {"measurement": "IL-17 production on re-stimulation", "setting": "activated T cells; re-stimulation after 5 days activation", "result": "blocked"},
      {"measurement": "serum IL-6", "setting": "[1]", "result": "significantly less"},
      {"measurement": "serum TNFα", "setting": "[1]", "result": "significantly less"},
      {"measurement": "AP-1 binding to DNA", "setting": "AP-1", "result": "modest increase"},
      {"measurement": "binding of NF-κB to DNA", "setting": "NF-κB [2]", "result": "normal"},
      {"measurement": "NFATc1 in the nuclear fraction of T cells", "setting": "NFATc1; 50 μM 2ME2, 30-60 minutes after PMA/iono stimulation", "result": "reduce the amount of NFATc1 present in the nuclear fraction"},
      {"measurement": "NFATc1 in the nuclear fraction of T cells", "setting": "NFATc1; 50 μM 2ME2, 24 hours after anti-CD3/28 stimulation", "result": "reduce the amount of NFATc1 present in the nuclear fraction"},
      {"measurement": "NFATc1 in the nuclear fraction of B cells", "setting": "NFATc1; 50 μM 2ME2, 24 hours after anti-IgM/CD40-stimulation", "result": "reduce the amount of NFATc1 present in the nuclear fraction"},
      {"measurement": "NF-κB-dependent transcriptional activity (normalized luciferase activity)", "setting": "NF-κB [3]", "result": "no effect"},
      {"measurement": "transcriptional activation of NFAT via TCR ligation (normalized luciferase activity)", "setting": "NFAT", "result": "dramatically inhibited"},
      {"measurement": "bioavailability", "setting": "[4]", "result": 1.5, "unit": "%"}
    ]}
  ]
}
